The source of these data is patent US11459313B2, “Aziridinyl and amino dimeric naphthoquinone compounds and use for acute myeloid leukemia” (University of Maryland, Baltimore, priority 2016, dated 2022).

Experiment [1] concerns MV4-11 cells. Description: WST-1 cell proliferation assay, MV4-11. Type of experiment: cell-based, human. Particulars: Homo sapiens, cell proliferation. On the procedure:
(§1) Cell lines were seeded into 96-well plates the afternoon prior to treatment. Approximately 18 hours later, bis and mono-aziridine dimeric naphthoquinone compounds were semi-serially diluted in dimethyl sulfoxide (DMSO) and then growth medium, and added to cells. Plates were incubated for 72 hours prior to addition of WST-1 (Promega®). Plates were read after 4 additional hours of incubation at 37° C. using a Bio-Tek Synergy® HT plate reader (Bio-Tek®). Data were analyzed and graphed using GraphPad Prism® Software (Graph Pad®).
(§2) Primary AML cells from patients and cell lines were seeded into 96-well plates the afternoon prior to treatment. Eighteen hours later, amino-dimeric naphthoquinone Compounds 106, 101, and 114 were semi-serially diluted in dimethyl sulfoxide (DMSO) and then growth medium, and added to the cells. In order to quantitate proliferation of metabolically active cells, plates were incubated for 72 hours for cell lines and 48 hours for primary AML cells prior to addition of water-soluble tetrazolium (WST-1) (Clontech®). Plates were read after four additional hours of incubation at 37° C. using a Bio-Tek Synergy® HT plate reader (Bio-Tele®). Data were analyzed and graphed using GraphPad Prism® Software (GraphPad®). IC50 was defined as the concentration that decreases viable cell numbers by 50%. IC50 values were calculated as mean±standard deviation from at least two independent experiments. If availability of primary blasts was limited, the IC50 was obtained from a single experiment.

The subject of experiment [2] is AML cells. Description: Clonogenicity of AML cells. Format: cell-based, human. Here is the method:
MOLM-14 and THP-1 were treated with either DMSO control or mono-aziridine dimeric naphthoquinone or bis-aziridinyl dimeric naphthoquinone compounds at concentrations of 0.1, 1, 10 and 100 μM (micromolar) for 24 hours. The cells then were washed with growth medium and resuspended in growth medium and methylcellulose with or without DMSO or the treatment compounds. After 7 or 13 days (MOLM-14 or THP-1, respectively), treatment was terminated by addition of 1.0 mg/mL, iodonitrotetrazolium chloride (INT; Sigma Aldrich®) and read 24 hours later with an automated colony counter (Symbiosis®). Data were analyzed and graphed using GraphPad Prism® software.
(§3) Two AML cell lines (MV4-11 & MOLM14) were treated with increasing doses of the clinically used naphthoquinones, atovaquone and vitamin K, as well as with Compound 102; and IC50 curves were generated with respect to cell proliferation as described above.

The subject of a further experiment is AML blasts. Description: γH2AX foci in treated AML blasts. Type of experiment: cell-based.
Experiment [3] relates to MV4-11 cells. Briefly: Cellular reactive oxygen species (H2DCFA), MV4-11. Type of experiment: cell-based, human. On the procedure:
MOLM-14 and THP-1 cells in logarithmic growth phase were centrifuged and resuspended in PBS at one million cells per milliliter (mL) of medium. Cells were preloaded with 2′,7′-dichlorodihydrofluorescein diacetate (H2DCFA, Life Technologies®) at a final concentration of 2 μM and incubated at 37° C. in the dark for 25 minutes. Cells were centrifuged and resuspended at one million per mL in phenol red-free RPMI plus 10% FBS and incubated at 37° C. in the dark for 25 minutes. Treatments were prepared at 2× concentrations of […] in complete phenol red-free RPMI and added to each well to yield 1× concentrations of 20, 10, 2, or 0.5 μM. Cells were incubated in the dark at 37° C. and measurement of ROS was performed with a Bio-tek® Synergy HT plate reader at various time points post treatment.
as §3
The amount of reactive oxygen species (ROS) that cells produced upon treatment with Compound 102 then was examined. See results in FIG. 9B. The cells were loaded with the ROS dye H2DCFA and subsequently plated into 96-well plates. […] The relative fluorescence units (RFU) were read at various time points. […]

In a further experiment the test system is MOLM-14 cells. Briefly: WST-1 cell proliferation assay, MOLM-14. Format: cell-based, human. As to conditions: Homo sapiens. On the procedure:
as §1, §2
To investigate antiproliferative activity of amino-dimeric naphthoquinones against AML cells, an MTT-like cell proliferation assay was performed in the AML cell lines using WST-1 (water soluble tetrazolium salts; Promega®). MOLM-14 and AML-D cells, as well as normal hematopoietic bone marrow cells from a healthy donor, were exposed to a range of concentrations of Compound 101. Human leukemia cells were cultured in the presence of the compound for 72 hours (48 hours for primary cells) and WST-1 reagent was then added. The cells then were monitored for cell growth or the number of cells proliferating and the IC50 calculated. The IC50 is the concentration at which 50% of the cells are not proliferating compared to control cells treated with vehicle. See FIG. 2A, FIG. 2B, and FIG. 2C for representative graphs of these IC50 determinations.
In general terms: Formazan colour is commonly taken as a measure of viable cells.

Experiment [4] has as its system MV4-11 cells. Description: Cell survival assay (trypan blue exclusion), MV4-11. Type of experiment: cell-based, human. On the procedure:
MOLM-.14 and THP-1 cells were seeded in 96-well plates and treated with DMSO, mono- and bis-aziridinyl dimeric naphthoquinone compounds, or dimethylamine dimeric naphthoquinone Compound 114 as previously described. Cells were incubated for 72 hours, and then counted using trypan blue exclusion on the Countess® automated cell counter (Life Technologies®). Cell counts were performed in duplicates, and the averages were graphed using GraphPad Prism® software (GraphPad®).
Cell survival was determined using trypan blue exclusion as described above, in which cells are plated and the following day treated similarly to the proliferation assay. Compound 102 (also referred to here as “66”) was effective in decreasing cell number at increasing concentrations of compound in MV4-11 cells.

The subject of experiment [5] is AML cells. Briefly: Cell proliferation assays, AML cells (lines not given singly). Format: cell-based, human. Particulars: MV4-11 and MOLM14, proliferation IC50. On the procedure:
as §2, §3

The next experiment has as its target IDO-1 (Homo sapiens, UniProt P14902). Briefly: IDO1 activity assay. Format: biochemical. An excerpt:
(§4) Methods were as described and according to known methods.

For the next experiment, the target named is T1, IDO-2 (Homo sapiens, UniProt Q6ZQW0).
T1 sequence (Q6ZQW0 1-407): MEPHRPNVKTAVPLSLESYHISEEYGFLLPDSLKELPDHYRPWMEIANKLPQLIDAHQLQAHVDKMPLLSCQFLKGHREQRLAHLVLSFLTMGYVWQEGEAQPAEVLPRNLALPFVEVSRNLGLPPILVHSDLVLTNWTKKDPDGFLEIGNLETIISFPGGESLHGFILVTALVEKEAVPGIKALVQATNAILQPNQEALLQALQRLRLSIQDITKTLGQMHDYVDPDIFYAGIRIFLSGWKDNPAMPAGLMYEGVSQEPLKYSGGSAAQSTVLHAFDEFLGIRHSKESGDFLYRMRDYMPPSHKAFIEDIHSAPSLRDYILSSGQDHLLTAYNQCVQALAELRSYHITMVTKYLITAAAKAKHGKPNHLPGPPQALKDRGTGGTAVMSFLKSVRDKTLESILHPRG
Description: IDO-2 activity. Type of experiment: biochemical.
Source text: as §4

In experiment [6] the target is tryptophan-2,3-dioxygenase (TDO) (Homo sapiens, UniProt P48775). Description: TDO activity. Type of experiment: biochemical.
Source text: as §4

The next experiment relates to THP-1 cells. Briefly: WST-1 cell proliferation assay, THP-1. Type of experiment: cell-based. As to conditions: Homo sapiens. On the procedure:
as §1, §2

“Also recorded” adds a separate entry of the source. Read-outs that look alike come from different tables or passages of the source.

Sequence of IDO-1 (P14902 whole entry, species assumed): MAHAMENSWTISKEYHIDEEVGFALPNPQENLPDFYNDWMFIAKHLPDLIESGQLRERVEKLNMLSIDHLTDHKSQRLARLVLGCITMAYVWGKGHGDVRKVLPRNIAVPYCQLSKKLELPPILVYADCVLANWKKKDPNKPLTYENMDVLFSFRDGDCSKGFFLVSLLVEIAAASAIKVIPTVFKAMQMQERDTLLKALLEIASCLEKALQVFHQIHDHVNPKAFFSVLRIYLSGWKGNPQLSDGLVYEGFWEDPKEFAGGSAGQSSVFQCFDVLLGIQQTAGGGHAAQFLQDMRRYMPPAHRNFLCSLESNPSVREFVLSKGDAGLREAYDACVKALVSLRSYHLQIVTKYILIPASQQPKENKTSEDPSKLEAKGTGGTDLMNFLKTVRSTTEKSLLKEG
Sequence of tryptophan-2,3-dioxygenase (TDO) (P48775 whole entry, species assumed): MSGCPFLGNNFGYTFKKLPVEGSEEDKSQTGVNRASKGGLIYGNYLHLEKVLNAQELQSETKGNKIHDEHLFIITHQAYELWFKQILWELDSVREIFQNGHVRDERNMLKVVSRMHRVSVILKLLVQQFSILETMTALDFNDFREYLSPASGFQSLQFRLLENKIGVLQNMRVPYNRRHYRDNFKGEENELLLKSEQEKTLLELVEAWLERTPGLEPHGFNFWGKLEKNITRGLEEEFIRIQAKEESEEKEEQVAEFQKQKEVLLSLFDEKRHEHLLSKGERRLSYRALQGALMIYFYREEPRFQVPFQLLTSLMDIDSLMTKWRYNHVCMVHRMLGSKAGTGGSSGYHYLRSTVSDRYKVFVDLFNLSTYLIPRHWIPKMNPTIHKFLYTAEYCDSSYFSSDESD

`O=C1C(NCCO)=C(C2=C(NCCO)C(=O)c3ccccc3C2=O)C(=O)c2ccccc21` [Compound 102, 3,3′-[(2-hydroxyethyl)amino]-2,2′-binaphthalenyl-1,1′,4,4′-tetrone]: the IC50 (commonly the concentration needed to halve the response being measured) came out at 0.2 ± 0.2 µM in the experiment with MV4-11 cells [1] (MV4-11, Table 2, read-out: MV411 IC50); 0.2 ± 0.2 µM in the experiment on MV4-11 cells [1] (MV4-11, Table 3, read-out: MV411 IC50); 0.2 µM in the experiment with MV4-11 cells [1] (MV4-11, Table 7, read-out: IC50 (μM) MV411); 0.16 ± 0.01 µM in the experiment with MOLM-14 cells (MOLM-14, Table 2, cell proliferation, read-out: MOLM14 IC50); 0.16 ± 0.01 µM with MOLM-14 cells (MOLM-14, Table 3, cell proliferation, read-out: MOLM14 IC50); 0.16 µM in the experiment with MOLM-14 cells (MOLM-14, Table 7, cell proliferation, read-out: IC50 (μM) MOLM-14). For the same compound, the “inhibition of clonogenicity of AML cells” value in the experiment with AML cells [2] is reported as “effectively inhibited clonogenicity of AML cells in a dose-dependent manner; also recorded: potent (nanomolar) inhibition of colony formation”. The “DNA damage (γH2AX foci)” value in the experiment with AML blasts is reported as “concomitant increase in DNA damage”. Moreover, the ROS production result in the experiment with MV4-11 cells [3] (Example 13, cells not named in the block, 2-6 hours) was “dose-dependent increase in ROS production”. Besides, in the experiment on MV4-11 cells [3] (at IC50 concentration), the “ROS levels, MV4-11” value is “ROS levels significantly peaked after 2 hours and returned to baseline within 24 hours”. In the experiment with MV4-11 cells [4], the “cell survival, MV4-11” value is listed as “dose-dependent reduction in cell survival”. Further, in the experiment on AML cells [5], the “potency relative to other naphthoquinones (atovaquone, vitamin K) against AML cells” value is reported as 25-30 fold. At IDO-1, the inhibition (in general, how much of the control response was suppressed) at 1 µM came out at 37%. Besides, the inhibition at 10 µM on IDO-1 was 79%. For the same compound, the “inhibition of IDO-2” value against IDO-2 is listed as “not”. Moreover, in experiment [6], the “inhibition of TDO” value is “not”.

Regarding `O=C1C(Cl)=C(C2=C(N3CC3)C(=O)c3ccccc3C2=O)C(=O)c2ccccc21` [Compound 106, 3-(aziridin-1-yl)-3′-chloro-[2,2′-binaphthalene]-1,1′ 4,4′-tetrone], the IC50 amounted to 3.9 ± 1 µM in the experiment with MOLM-14 cells (MOLM-14, read-out: IC50 MOLM-14); 3.9 ± 1 µM in the experiment on MOLM-14 cells (MOLM-14, read-out: IC50 MOLM-14 (n)); 7700 ± 1300 nM in the experiment on THP-1 cells (THP-1, read-out: IC50 THP1 (n)); 7700 ± 1300 nM with THP-1 cells (THP-1, read-out: IC50 THP-1).
